Experimental data as given in paper PMC10620931, “Assay Development for Metal-Dependent Enzymes—Influence of Reaction Buffers on Activities and Kinetic Characteristics” (ACS Omega, 2023).

Test system: T1, BLC23O
T1 construct: 6xHis-tag, expressed in E. coli BL21 (DE3); Ni-NTA and size exclusion; Mn2+-dependent
Assay: absorbance of ring-cleavage product at […] nm, Michaelis-Menten fit
Assay type: biochemical, Halalkalibacterium ligniniphilum
Settings: 50 mM HEPES pH 7.6, 10 μM Mn2+, 32.5 °C (optimal conditions)

## Cc1cccc(O)c1O [3-methylcatechol]
  Km: 540 ± 20 µM
